Test results published in patent EP4129284B1, “SERTACONAZOL FOR PROVIDING A SPORISTATIC AND/OR SPORICIDAL EFFECT” (Dr. Pfleger Arzneimittel GmbH, priority 2021, dated 2023).

Assays:
T. rubrum = experiment: Full skin model infected with spores, treatment, histology (PAS-staining); assay type: cell-based, Trichophyton rubrum; conditions: for spread of T. rubrum: up to 72 h after application, ciclopiroxolamin 400 µg/mL, terbinafin 0.050 µg/mL, histology vs infected untreated control; for outgrowth of the spores of T. rubrum: sertaconazol 0.025 µg/mL, Fig. 5
Description: (§1) For an application in vivo, there is the additional requirement for the antimycotic substances to evoke a targeted antimycotic activity in the presence of human cells. Thus, 3D-cell-cultures such as full skin models are used to simulate the in vivo conditions. Such full skin models are for example described in Reddersen K, Wiegand C, Elsner P, Hipler UC. Three-dimensional human skin model infected with Staphylococcus aureus as a tool for evaluation of bioactivity and biocompatibility of antiseptics. Int J Antimicrob Agents. 2019; 54(3):283-291; Wiegand C, Fink S, Beier O, Horn K, Pfuch A, Schimanski A, Grünler B, Hipler UC, Elsner P. Dose- and Time-Dependent Cellular Effects of Cold Atmospheric Pressure Plasma Evaluated in 3D Skin Models. Skin Pharmacol Physiol. 2016;29(5):257-265. Particularly, such full skin models are made of a collagen matrix, which is colonized with primary human fibroblasts, and a fully differentiated epidermis made of primary human keratinocytes. For the experiments, the model is infected in vitro with spores, such that a determination of the sporistatic or sporicidal influence of the substances to be examined at in vivo relevant conditions is allowed. Compared to a 2D-model, the 3D full skin model has the advantage that the cells are in their natural three-dimensional surrounding and show a corresponding behaviour. Such, the antimycotic and sporistatic or sporicidal effects can be examined in situ and in the presence of human cells.
The spore suspensions and the solutions of sertaconazol, ciclopiroxolamin and terbinafin were prepared as in Example 1, wherein the respective test concentrations were obtained by diluting these solutions in ultrapure water (WFI; Fresenius Kabi) instead of SGB (Merck). Full skin models were produced as previously described [Reddersen K, Wiegand C, Elsner P, Hipler UC. Three-dimensional human skin model infected with Staphylococcus aureus as a tool for evaluation of bioactivity and biocompatibility of antiseptics. Int J Antimicrob Agents. 2019; 54(3):283-291; Wiegand C, Fink S, Beier O, Horn K, Pfuch A, Schimanski A, Grünler B, Hipler UC, Elsner P. Dose- and Time-Dependent Cellular Effects of Cold Atmospheric Pressure Plasma Evaluated in 3D Skin Models. Skin Pharmacol Physiol. 2016;29(5):257-265].Particularly, normal human dermal fibroblasts (NHDF; Lot 1060702.1, Promocell) and normal human epidermal keratinocytes (NHEK; Lot 9100102, Promocell) were used. Fibroblasts were cultivated in Dulbecco's modified eagle medium (DMEM; Lot MC09049P, Amimed), with 2% foetal calf serum (Lot P160509; PAN), 5 ng/mL hFGF (Lot 0329586; novoprotein) and 5 µg/ml Insulin (Lot H07443P, AMIMED) at 37°C and a 5% CO2 atmosphere. […]

C. albicans = experiment: as above; assay type: cell-based, Candida albicans; conditions: over 72 h, sertaconazol 800, ciclopiroxolamin 400, terbinafin 1600 µg/mL, Fig. 7
Description: as §1
The spore suspensions and the solutions of sertaconazol, ciclopiroxolamin and terbinafin were prepared as in Example 1, wherein the respective test concentrations were obtained by diluting these solutions in ultrapure water (WFI; Fresenius Kabi) instead of SGB (Merck). Full skin models were produced as previously described [Reddersen K, Wiegand C, Elsner P, Hipler UC. […] 2019; 54(3):283-291; Wiegand C, Fink S, Beier O, Horn K, Pfuch A, Schimanski A, Grünler B, Hipler UC, Elsner P. Dose- and Time-Dependent Cellular Effects of Cold Atmospheric Pressure Plasma Evaluated in 3D Skin Models. […]

Row | Compound | spread of T. rubrum (T. rubrum) | outgrowth of C. albicans (C. albicans) | outgrowth of the spores of T. rubrum (T. rubrum; 48 h treatment) | outgrowth of the spores of T. rubrum (T. rubrum; 72 h treatment)
1 | Cc1cc(C2CCCCC2)n(O)c(=O)c1 [Ciclopiroxolamin, ciclopiroxolamin] | reduce the spread of T. rubrum but could not inhibit it | much lower effect |  | 
2 | CN(C/C=C/C#CC(C)(C)C)Cc1cccc2ccccc12 [Terbinafin, terbinafin] | did not have any effect | much lower effect |  | 
3 | Clc1ccc(C(Cn2ccnc2)OCc2csc3c(Cl)cccc23)c(Cl)c1 (stereo not shown) [Sertaconazol, sertaconazol] |  | clearly reduced | inhibit the outgrowth | reduce the outgrowth
